Results reported in US6613747B2, “6-O-carbamoyl ketolide antibacterials” (Ortho-McNeil Pharmaceutical, Inc., priority 2000, dated 2003).
Converted amounts (≈) assume the structure as drawn. Like-named read-outs stand apart in the source and are kept apart here.

Assays:
Test in all cases: MIC, microdilution broth method (NCCLS)
Format in all cases: cell-based
E. coli OC2605 = conditions: A: E. coli OC2605, 35° C., 16-20 hours
How it was run: (§1)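 Following the NCCLS microdilution standard, organisms from actively growing broth cultures are added at roughly 5×10^4 CFU/well to two-fold drug series in cation-adjusted Mueller-Hinton broth. Trays incubate 16-20 hours at 35° C. before reading.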

S. pneumoniae ATCC49619 = conditions: D: S. pneumoniae ATCC49619, 35° C., 16-20 hours
How it was run: as §1

E. faecalis ATCC29212 = conditions: C: E. faecalis ATCC29212, 35° C., 16-20 hours
How it was run: as §1

S. aureus ATCC29213 = conditions: B: S. aureus ATCC29213, 35° C., 16-20 hours
How it was run: as §1

H. influenzae ATCC49247 = conditions: E: H. influenzae ATCC49247, 35° C., 16-20 hours
How it was run: as §1

SMILES	MIC (E. coli OC2605)	MIC (S. pneumoniae ATCC49619)	MIC (E. faecalis ATCC29212)	MIC (S. aureus ATCC29213)	MIC (H. influenzae ATCC49247)	MIC (E. coli OC2605; Escherichia coli, read-out: MIC)	MIC (S. pneumoniae ATCC49619; Streptococcus pneumoniae, read-out: MIC)	MIC (E. faecalis ATCC29212; Enterococcus faecalis, read-out: MIC)	MIC (S. aureus ATCC29213; Staphylococcus aureus, read-out: MIC)	MIC (H. influenzae ATCC49247; Haemophilus influenzae, read-out: MIC)
CC[C@H]1OC(=O)[C@H](C)C(=O)[C@H](C)[C@@H](O[C@@H]2O[C@H](C)C[C@H](N(C)C)[C@H]2O)[C@](C)(OC(=O)NC/C=C/c2ccc(-c3nccc(OC)n3)cc2)C[C@@H](C)C(=O)[C@H](C)[C@H]2NC(=O)O[C@@]21C [Compound 71]	>16 µg/mL	0.06 µg/mL (≈ 0.0693 µM)	0.12 µg/mL (≈ 0.139 µM)	0.25 µg/mL (≈ 0.289 µM)	4 µg/mL (≈ 4.62 µM)					
CC[C@H]1OC(=O)[C@H](C)C(=O)[C@H](C)[C@@H](O[C@@H]2O[C@H](C)C[C@H](N(C)C)[C@H]2O)[C@](C)(OC(=O)NC/C=C/c2ccc(Br)nc2)C[C@@H](C)C(=O)[C@H](C)[C@H]2NC(=O)O[C@@]21C [Compound 72]	8 µg/mL (≈ 9.55 µM)	≦0.015 μg/mL	0.06 µg/mL (≈ 0.0716 µM)	0.25 µg/mL (≈ 0.298 µM)	2 µg/mL (≈ 2.39 µM)					
CC[C@H]1OC(=O)[C@H](C)C(=O)[C@H](C)[C@@H](O[C@@H]2O[C@H](C)C[C@H](N(C)C)[C@H]2O)[C@](C)(OC(=O)NCc2ccc(-n3cccn3)cc2F)C[C@@H](C)C(=O)[C@H](C)[C@H]2NC(=O)O[C@@]21C [Compound 73]	16 µg/mL (≈ 19.6 µM)	0.03 µg/mL (≈ 0.0368 µM)	0.06 µg/mL (≈ 0.0735 µM)	0.5 µg/mL (≈ 0.613 µM)	2 µg/mL (≈ 2.45 µM)					
CC[C@H]1OC(=O)[C@H](C)C(=O)[C@H](C)[C@@H](O[C@@H]2O[C@H](C)C[C@H](N(C)C)[C@H]2O)[C@](C)(OC(=O)NC/C=C/c2ccc(-n3cccn3)cc2F)C[C@@H](C)C(=O)[C@H](C)[C@H]2NC(=O)O[C@@]21C [Compound 74]	16 µg/mL (≈ 19 µM)	≦0.015 μg/mL	0.06 µg/mL (≈ 0.0713 µM)	0.06 µg/mL (≈ 0.0713 µM)	1 µg/mL (≈ 1.19 µM)					
CCC1OC(=O)C(C)(F)C(=O)C(C)C(OC2OC(C)CC(N(C)C)C2O)C(C)(OC(=O)NCC=Cc2ccc(-c3ncccn3)cc2)CC(C)C(=O)C(C)C2NC(=O)OC12C (stereo not shown) [Compound 75]	>16 µg/mL	0.03 µg/mL (≈ 0.0351 µM)	0.12 µg/mL (≈ 0.141 µM)	0.25 µg/mL (≈ 0.293 µM)	4 µg/mL (≈ 4.68 µM)					
CC[C@H]1OC(=O)[C@H](C)C(=O)[C@H](C)[C@@H](O[C@@H]2O[C@H](C)C[C@H](N(C)C)[C@H]2O)[C@](C)(OC(=O)NCc2ccc(-c3cnccn3)cc2)C[C@@H](C)C(=O)[C@H](C)[C@H]2NC(=O)O[C@@]21C [Compound 76]	16 µg/mL (≈ 19.8 µM)	≦0.015 μg/mL	0.06 µg/mL (≈ 0.0741 µM)	0.25 µg/mL (≈ 0.309 µM)	2 µg/mL (≈ 2.47 µM)					
CC[C@H]1OC(=O)[C@H](C)C(=O)[C@H](C)[C@@H](O[C@@H]2O[C@H](C)C[C@H](N(C)C)[C@H]2O)[C@](C)(OC(=O)NC/C=C/c2ccc(-c3cnccn3)cc2)C[C@@H](C)C(=O)[C@H](C)[C@H]2NC(=O)O[C@@]21C [Compound 77, Carbamic acid, [(2E)-3-(4-pyrazinylphenyl)-2-propenyl]-, (3aS,4R,7R,9R,10R,11R,13R,15R,15aR)-4-ethyltetradecahydro-3a,7,9,11,13,15-hexamethyl-2,6,8,14-tetraoxo-10-[[3,4,6-trideoxy-3-(dimethylamino)-β-D-xylo-hexopyranosyl]oxy]-2H-oxacyclotetradecino[4,3-d]oxazol-11-yl ester]						16 µg/mL (≈ 19.1 µM)	0.03 µg/mL (≈ 0.0359 µM)	0.12 µg/mL (≈ 0.144 µM)	0.12 µg/mL (≈ 0.144 µM)	4 µg/mL (≈ 4.78 µM)
CC[C@H]1OC(=O)[C@H](C)C(=O)[C@H](C)[C@@H](O[C@@H]2O[C@H](C)C[C@H](N(C)C)[C@H]2O)[C@](C)(OC(=O)NC/C=C/c2ccc(-c3ccncn3)cc2)C[C@@H](C)C(=O)[C@H](C)[C@H]2NC(=O)O[C@@]21C [Compound 78]	>16 µg/mL	0.03 µg/mL (≈ 0.0359 µM)	0.06 µg/mL (≈ 0.0718 µM)	0.25 µg/mL (≈ 0.299 µM)	4 µg/mL (≈ 4.78 µM)					
CC[C@H]1OC(=O)[C@H](C)C(=O)[C@H](C)[C@@H](O[C@@H]2O[C@H](C)C[C@H](N(C)C)[C@H]2O)[C@](C)(OC(=O)NCc2ccc(-c3ccncn3)cc2)C[C@@H](C)C(=O)[C@H](C)[C@H]2NC(=O)O[C@@]21C [Compound 79]	8 µg/mL (≈ 9.88 µM)	0.03 µg/mL (≈ 0.037 µM)	0.06 µg/mL (≈ 0.0741 µM)	0.25 µg/mL (≈ 0.309 µM)	2 µg/mL (≈ 2.47 µM)					
CC[C@H]1OC(=O)[C@H](C)C(=O)[C@H](C)[C@@H](O[C@@H]2O[C@H](C)C[C@H](N(C)C)[C@H]2O)[C@](C)(OC(=O)NCCCc2ccc(-c3ncccn3)cc2)C[C@@H](C)C(=O)[C@H](C)[C@H]2NC(=O)O[C@@]21C [Compound 80, Carbamic acid, [3-[4-(2-2pyrimidinyl)phenyl]propyl]-, (3aS,4R,7R,9R,10R,11R,13R,15R,15aR)-4-ethyltetradecahydro-3a,7,9,11,13,15-hexamethyl-2,6,8,14-tetraoxo-10-[[3,4,6-trideoxy-3-(dimethylamino)-b-β-xylo-hexopyranosyl]oxy]-2H-oxacyclotetradecino[4,3-d]oxazol-11-yl ester]	>16 µg/mL	0.03 µg/mL (≈ 0.0358 µM)	0.06 µg/mL (≈ 0.0716 µM)	0.12 µg/mL (≈ 0.143 µM)	4 µg/mL (≈ 4.77 µM)					
CC[C@H]1OC(=O)[C@H](C)C(=O)[C@H](C)[C@@H](O[C@@H]2O[C@H](C)C[C@H](N(C)C)[C@H]2O)[C@](C)(OC(=O)NCc2ccc(-n3cccn3)c(OC)c2)C[C@@H](C)C(=O)[C@H](C)[C@H]2NC(=O)O[C@@]21C [Compound 81]	>16 µg/mL	0.06 µg/mL (≈ 0.0725 µM)	0.12 µg/mL (≈ 0.145 µM)	2 µg/mL (≈ 2.42 µM)	8 µg/mL (≈ 9.66 µM)					
CC[C@H]1OC(=O)[C@H](C)C(=O)[C@H](C)[C@@H](O[C@@H]2O[C@H](C)C[C@H](N(C)C)[C@H]2O)[C@](C)(OC(=O)NCC#Cc2ccc(-n3cccn3)cc2)C[C@@H](C)C(=O)[C@H](C)[C@H]2NC(=O)O[C@@]21C [Compound 82]	>16 µg/mL	0.03 µg/mL (≈ 0.0365 µM)	0.06 µg/mL (≈ 0.073 µM)	0.25 µg/mL (≈ 0.304 µM)	4 µg/mL (≈ 4.87 µM)					
CC[C@H]1OC(=O)[C@H](C)C(=O)[C@H](C)[C@@H](O[C@@H]2O[C@H](C)C[C@H](N(C)C)[C@H]2O)[C@](C)(OC(=O)NCc2ccc(Oc3ncccn3)cc2)C[C@@H](C)C(=O)[C@H](C)[C@H]2NC(=O)O[C@@]21C [Compound 83]	>16 µg/mL	0.06 µg/mL (≈ 0.0726 µM)	0.25 µg/mL (≈ 0.303 µM)	2 µg/mL (≈ 2.42 µM)	8 µg/mL (≈ 9.69 µM)					
CC[C@H]1OC(=O)[C@H](C)C(=O)[C@H](C)[C@@H](O[C@@H]2O[C@H](C)C[C@H](N(C)C)[C@H]2O)[C@](C)(OC(=O)NC/C=C/c2ccc(-n3cccn3)c(OC)c2)C[C@@H](C)C(=O)[C@H](C)[C@H]2NC(=O)O[C@@]21C [Compound 84]	>16 µg/mL	0.06 µg/mL (≈ 0.0703 µM)	0.12 µg/mL (≈ 0.141 µM)	0.25 µg/mL (≈ 0.293 µM)	4 µg/mL (≈ 4.68 µM)					
CC[C@H]1OC(=O)[C@H](C)C(=O)[C@H](C)[C@@H](O[C@@H]2O[C@H](C)C[C@H](N(C)C)[C@H]2O)[C@](C)(OC(=O)N(C)C/C=C/c2ccc(-c3ncccn3)cc2)C[C@@H](C)C(=O)[C@H](C)[C@H]2NC(=O)O[C@@]21C [Compound 85]	>16 µg/mL	0.12 µg/mL (≈ 0.141 µM)	0.25 µg/mL (≈ 0.294 µM)	1 µg/mL (≈ 1.18 µM)	>16 µg/mL					
CC[C@H]1OC(=O)[C@H](C)C(=O)[C@H](C)[C@@H](O[C@@H]2O[C@H](C)C[C@H](N(C)C)[C@H]2O)[C@](C)(OC(=O)NC/C=C/c2ccc(Oc3ncccn3)cc2)C[C@@H](C)C(=O)[C@H](C)[C@H]2NC(=O)O[C@@]21C [Compound 86]	>16 µg/mL	0.06 µg/mL (≈ 0.0704 µM)	0.12 µg/mL (≈ 0.141 µM)	0.5 µg/mL (≈ 0.587 µM)	8 µg/mL (≈ 9.39 µM)					
CC[C@H]1OC(=O)[C@H](C)C(=O)[C@H](C)[C@@H](O[C@@H]2O[C@H](C)C[C@H](N(C)C)[C@H]2O)[C@](C)(OC(=O)NCc2ccc(-c3ncccn3)cc2F)C[C@@H](C)C(=O)[C@H](C)[C@H]2NC(=O)O[C@@]21C [Compound 87]	16 µg/mL (≈ 19.3 µM)	0.03 µg/mL (≈ 0.0362 µM)	0.06 µg/mL (≈ 0.0725 µM)	0.25 µg/mL (≈ 0.302 µM)	4 µg/mL (≈ 4.83 µM)					
